Experiment [1] concerns TGF-β signaling (TGF-β pSMAD, MPC-11). Put plainly: AlphaScreen SureFire SMAD3 (p-Ser423/425) assay, inhibition of TGF-β signaling. Format: cell-based. As to conditions: Mus musculus, MPC-11, inhibition of TGF-β signaling, p-SMAD3 readout. (Bead proximity is the source of the signal in Alpha formats.)
The subject of experiment [2] is GDF8 signaling (GDF pSMAD, MPC11). Put plainly: AlphaScreen SureFire SMAD3 (p-Ser423/425) assay, inhibition of GDF8 signaling. Format: cell-based. The settings on record: Mus musculus, MPC-11, inhibition of GDF8 signaling, p-SMAD3 readout.

Among the data in patent US10287295B2, “TGF-β inhibitors” (Rigel Pharmaceuticals, Inc., priority 2015, dated 2019) are IC50 values, retold here.

pIC50: −log10 of the molar value.

As a reminder, the pIC50 is −log10 of the IC50, conventionally taken in molar units. Regarding `c1ccc(-c2nc[nH]c2-c2ccc3[nH]ncc3c2)cc1` [Compound 1, 5-(4-Phenyl-1H-imidazol-5-yl)-1H-indazole], the results for the pIC50 in experiment [1] and in experiment [2] were 6.64 and 7.15, respectively. Consider `c1ccc(-c2nc[nH]c2-c2ccc3cn[nH]c3c2)cc1` [Compound 2, 6-(4-Phenyl-1H-imidazol-5-yl)-1H-indazole], for which the values for the pIC50 in experiment [1] and in experiment [2] were 6.70 and 7.22, respectively. For `Cc1cc(-c2nc[nH]c2-c2ccc3[nH]ncc3c2)ccc1F` [Compound 3, 5-(4-(4-Fluoro-3-methylphenyl)-1H-imidazol-5-yl)-1H-indazole], in that order: 8.00 and 8.00.

`Cc1cc(-c2nc[nH]c2-c2ccc3cn[nH]c3c2)ccc1F` [Compound 4, 6-(4-(4-Fluoro-3-methylphenyl)-1H-imidazol-5-yl)-1H-indazole]: the pIC50 in experiment [1] was 7.70; in experiment [2], 8.00. For `Clc1ccc(-c2nc[nH]c2-c2ccc3[nH]ncc3c2)cc1` [Compound 6, 5-(4-(4-Chlorophenyl)-1H-imidazol-5-yl)-1H-indazole], in that order: 6.21 and 6.80. Turning to `Cc1cc(-c2ncn(C)c2-c2ccc3ncn(C)c3c2)ccc1F` [Compound 8, 6-(4-(4-Fluoro-3-methylphenyl)-1-methyl-1H-imidazol-5-yl)-1-methyl-1H-benzo[d]imidazole], the figures for the negative-log IC50 (pIC50) in experiment [1] and in experiment [2] were 6.68 and 7.05, respectively. As for `Cc1cc(-c2ncn(C)c2-c2ccc3ncsc3c2)ccc1F` [Compound 9, 6-(4-(4-Fluoro-3-methylphenyl)-1-methyl-1H-imidazol-5-yl)benzo[d]thiazole], the pIC50 in experiment [1] is 6.48; in experiment [2], 7.22. For `Fc1ccc(-c2nc[nH]c2-c2ccc3[nH]ncc3c2)cc1` [Compound 10, 5-(4-(4-Fluorophenyl)-1H-imidazol-5-yl)-1H-indazole], in that order: 7.22 and 8.00.

For `Fc1ccc(-c2nc[nH]c2-c2ccc3cn[nH]c3c2)cc1` [Compound 11, 6-(4-(4-Fluorophenyl)-1H-imidazol-5-yl)-1H-indazole], the figures for the pIC50 in experiment [1] and in experiment [2] were 6.89 and 7.40, respectively. Take `Cn1cnc2ccc(-c3[nH]cnc3-c3ccc(F)cc3)cc21` [Compound 12, 6-(4-(4-Fluorophenyl)-1H-imidazol-5-yl)-1-methyl-1H-benzo[d]imidazole]: the pIC50 in experiment [1] was 6.57; in experiment [2], 6.89. For `Fc1ccc(-c2nc[nH]c2-c2ccc3ncsc3c2)cc1` [Compound 13, 6-(4-(4-Fluorophenyl)-1H-imidazol-5-yl)benzo[d]thiazole], in that order: 6.42 and 6.92. For `Fc1ccc(-c2nc[nH]c2-c2ccc3nccn3c2)cc1` [Compound 14, 6-(4-(4-Fluorophenyl)-1H-imidazol-5-yl)imidazo[1,2-a]pyridine], the pIC50 was 5.74 in experiment [1] and 6.21 in experiment [2]. `Cc1cccc(-c2nc[nH]c2-c2ccc3[nH]ncc3c2)c1` [Compound 15, 5-(4-(m-Tolyl)-1H-imidazol-5-yl)-1H-indazole]: the pIC50 was 7.22 in experiment [1] and 8.00 in experiment [2]. For `Cc1cccc(-c2nc[nH]c2-c2ccc3cn[nH]c3c2)c1` [Compound 16, 6-(4-(m-Tolyl)-1H-imidazol-5-yl)-1H-indazole], the pIC50 was 7.00 in experiment [1] and 7.70 in experiment [2]. For the molecule `Cc1cccc(-c2nc[nH]c2-c2ccc3ncn(C)c3c2)c1` [Compound 17, 1-Methyl-6-(4-(m-tolyl)-1H-imidazol-5-yl)-1H-benzo[d]imidazole], the pIC50 in experiment [1] was 6.85; in experiment [2], 7.30. For `Cc1cccc(-c2nc[nH]c2-c2ccc3ncsc3c2)c1` [Compound 18, 6-(4-(m-Tolyl)-1H-imidazol-5-yl)benzo[d]thiazole], in that order: 6.82 and 7.40. Turning to `Cc1cccc(-c2nc[nH]c2-c2ccc3nccn3c2)c1` [Compound 19, 6-(4-(m-Tolyl)-1H-imidazol-5-yl)imidazo[1,2-a]pyridine], the pIC50 is 6.14 in experiment [1] and 6.82 in experiment [2].

For `Cc1cccc(-c2nc[nH]c2-c2ccc3nccnc3c2)c1` [Compound 20, 6-(4-(m-Tolyl)-1H-imidazol-5-yl)quinoxaline], the pIC50 in experiment [1] is 6.80; in experiment [2], 6.74.

For `Cc1cc(-c2ncn(C)c2-c2ccc3nccnc3c2)ccc1F` [Compound 21, 6-(4-(4-Fluoro-3-methylphenyl)-1-methyl-1H-imidazol-5-yl)quinoxaline], the negative logarithm of the IC50 (pIC50) in experiment [1] is 6.13; in experiment [2], 6.42. On to `Clc1cccc(-c2nc[nH]c2-c2ccc3[nH]ncc3c2)c1` [Compound 22, 5-(4-(3-Chlorophenyl)-1H-imidazol-5-yl)-1H-indazole], for which the pIC50 in experiment [1] was 7.52; in experiment [2], 7.70. Turning to `Clc1cccc(-c2nc[nH]c2-c2ccc3cn[nH]c3c2)c1` [Compound 23, 6-(4-(3-Chlorophenyl)-1H-imidazol-5-yl)-1H-indazole], the pIC50 is 7.52 in experiment [1] and 8.00 in experiment [2]. `Cn1cnc2ccc(-c3[nH]cnc3-c3cccc(Cl)c3)cc21` [Compound 24, 6-(4-(3-Chlorophenyl)-1H-imidazol-5-yl)-1-methyl-1H-benzo[d]imidazole]: the pIC50 in experiment [1] and in experiment [2] was 8.00 throughout. As for `Clc1cccc(-c2nc[nH]c2-c2ccc3ncsc3c2)c1` [Compound 25, 6-(4-(3-Chlorophenyl)-1H-imidazol-5-yl)benzo[d]thiazole], the negative logarithm of the IC50 (pIC50) in experiment [1] is 7.22; in experiment [2] it was 7.40. For `Clc1cccc(-c2nc[nH]c2-c2ccc3nccn3c2)c1` [Compound 26, 6-(4-(3-Chlorophenyl)-1H-imidazol-5-yl)imidazo[1,2-a]pyridine], in that order: 6.59 and 6.66. For `Fc1cccc(-c2nc[nH]c2-c2ccc3[nH]ncc3c2)c1` [Compound 27, 5-(4-(3-Fluorophenyl)-1H-imidazol-5-yl)-1H-indazole], in that order: 6.92 and 7.05. Consider `Fc1cccc(-c2nc[nH]c2-c2ccc3cn[nH]c3c2)c1` [Compound 28, 6-(4-(3-Fluorophenyl)-1H-imidazol-5-yl)-1H-indazole], for which the pIC50 was 7.22 in experiment [1] and 7.30 in experiment [2]. On to `Cn1cnc2ccc(-c3[nH]cnc3-c3cccc(F)c3)cc21` [Compound 29, 6-(4-(3-Fluorophenyl)-1H-imidazol-5-yl)-1-methyl-1H-benzo[d]imidazole], for which, in experiment [2], the pIC50 was 6.54.

In the case of `Fc1cccc(-c2nc[nH]c2-c2ccc3ncsc3c2)c1` [Compound 30, 6-(4-(3-Fluorophenyl)-1H-imidazol-5-yl)benzo[d]thiazole], the pIC50 in experiment [1] was 6.49; in experiment [2] it was 6.57. For `Fc1ccc(-c2nc[nH]c2-c2ccc3[nH]ncc3c2)cc1F` [Compound 31, 5-(4-(3,4-Difluorophenyl)-1H-imidazol-5-yl)-1H-indazole], in that order: 7.05 and 7.70. On to `Fc1ccc(-c2nc[nH]c2-c2ccc3cn[nH]c3c2)cc1F` [Compound 32, 6-(4-(3,4-Difluorophenyl)-1H-imidazol-5-yl)-1H-indazole], for which the pIC50 in experiment [1] was 6.85; in experiment [2] it was 7.30.
